Here are results for 32 compounds from PubChem BioAssay AID623861 (Sanford-Burnham Center for Chemical Genomics, 2012).

The subject of this test is human iPSC single-cell survival, ATP luminescence. Nature of the test: human iPSC survival promotion after dissociation – cell-based, luminescence, dose response (AID 623861).

Activity calls are given as the source filed them.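 How the source made its calls: active means compounds whose EC50 for boosting single-cell stem cell survival is at or below a set limit; inactive means the rest.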 Where only a bound is given, the exact number is not on record here.

Turning to `C=C1C(C)C2C(Cc3ccccc3)NC(=O)C23C(OC(C)=O)C=CC(C)(O)CC(C)CC=CC3C1O` (configuration not stated), the concentration for a half-maximal effect (EC50) was 0.448 µM.

For the compound `O=C(Cc1ccc(Br)cc1)Nc1ccc2[nH]ncc2c1`, the EC50 was 25.2 µM (inactive).

For `COc1cccc(C2CC(=O)N3CN(c4cccc(Cl)c4C)CSC3=C2C#N)c1OC` (configuration not stated), the EC50 was > 80 µM (inactive).

Regarding `C[C@@H]1CCCCO[C@@H](CN(C)S(=O)(=O)c2cccs2)[C@@H](C)CN([C@H](C)CO)C(=O)c2cc(NS(=O)(=O)c3ccccc3)ccc2O1`, the EC50 is > 80 µM (inactive).

As for `COc1cc(CC(CC(=O)O)CC(C)OCc2ccccc2)cc(OC)c1` (configuration not stated), the EC50 is > 80 µM (inactive).

Turning to `O=C1CCC2(C(=O)O)Sc3ccccc3N12` (configuration not stated), the EC50 was > 80 µM (inactive).

As for `O=C(COc1ccccc1)Nc1nc(-c2ccncc2)cs1`, the EC50 was 15.9 µM.

For the compound `COC(=O)C1=C(C)N(C)C(C)=C(C(=O)OC)C1c1cccc(Br)c1`, the EC50 is > 80 µM (inactive).

`O=S(=O)(c1cccc2cnccc12)N1CCNCC1`: the concentration for a half-maximal effect (EC50) was 2.89 µM.

Consider `O=C(Nc1ccc(N2CCOCC2)cc1)c1cccc(S(=O)(=O)N2CCCC2)c1`, for which the EC50 was > 80 µM (inactive).

Regarding `Cc1ccc(S(=O)(=O)N[C@H](C(=O)OCC(=O)NC(=O)NCc2ccco2)C(C)C)cc1`, the EC50 was > 80 µM (inactive).

On to `O=C(Nc1ccncc1)c1cc(S(=O)(=O)N2CCCC2)ccc1Cl`, for which the EC50 was 20.5 µM (inactive).

As for `CN(C)CCN(C(=O)c1ccc2ccccc2c1)c1nc2cc3c(cc2s1)OCO3`, the EC50 is > 80 µM (inactive).

Take `CN(Cc1ccc(C(F)(F)F)cc1)C(=O)[C@H]1O[C@@H](n2cnc3c(N)ncnc32)[C@H](O)[C@@H]1O`: the EC50 was 26.1 µM (inactive).

In the case of `CC(OC(=O)c1ccc(S(=O)(=O)N2CCCCC2)cc1)C(=O)Nc1ccc(C(N)=O)cc1` (configuration not stated), the EC50 is 8.72 µM.

Turning to `CCc1c(C(=O)Nc2ccc(OC)cc2)[nH]c(C)c1C(C)=O`, the EC50 is > 80 µM (inactive).

As for `COc1c(Cl)cnn(-c2ccc(C)cc2)c1=O`, the EC50 was > 80 µM (inactive).

Consider `COC(=O)c1[nH]c2ccccc2c1NC(=O)CCN1CCSCC1`, for which the EC50 was > 80 µM (inactive).

Take `Cc1ccc([C@@H]2C[C@H]3[C@@H](CN2S(=O)(=O)c2ccc(Cl)cc2)C(=O)C[C@@H](c2ccc(C)cc2)N3S(=O)(=O)c2ccc(Cl)cc2)cc1`: the EC50 was > 80 µM (inactive).

`CCCCn1c(=O)[nH]c(=O)c2c1nc(Cn1ncc(Cl)c(Cl)c1=O)n2CCC`: the EC50 was 5.62 µM.

As to `C[C@@H]1CN([C@@H](C)CO)C(=O)c2cc(Br)cnc2O[C@H]1CN(C)C(=O)C1CC1`, the EC50 was > 80 µM (inactive).

Turning to `CN(C)c1ccc(-c2ccnc3c2CC(C)(C(=O)Nc2ccc(Cl)c(C(F)(F)F)c2)O3)cc1` (configuration not stated), the EC50 was > 80 µM (inactive).

`CCN1C/C(=C/c2cccc([N+](=O)[O-])c2)C(=O)/C(=C/c2cccc([N+](=O)[O-])c2)C1`: the half-maximal effective concentration (EC50) is 9.01 µM.

For the compound `C1CCN(c2nc3nonc3nc2N2CCCC2)C1`, the EC50 was > 80 µM (inactive).

Regarding `Cc1ccc(C(=O)OCc2cc(=O)n3ccsc3n2)s1`, the EC50 was > 80 µM (inactive).

Consider `C=C1[C@@H](C)[C@H]2[C@H](Cc3ccccc3)NC(=O)[C@]23OC(=O)/C=C/[C@H](O)CCC[C@@H](C)C/C=C/[C@H]3[C@@H]1O`, for which the EC50 was 21.7 µM (inactive).

As to `CC(Oc1ccccc1)C(=O)Nc1nc(-c2ccncc2)cs1` (configuration not stated), the EC50 is 37.8 µM (inactive).

For the compound `Cc1ccc(-n2nc(C)c3c(C)cc(=O)[nH]c32)cc1`, the EC50 is > 80 µM (inactive).

As for `C=C1C(=O)OC2CC(C)C3C=CC(=O)C3(C)C(O)C12` (configuration not stated), the EC50 was 9.47 µM.

Regarding `O=C(Nc1nc(-c2ccncc2)cs1)C1COc2ccccc2O1` (configuration not stated), the EC50 is 3.19 µM.

As to `CCCNC(=O)COC(=O)c1ccccc1C(=O)c1ccc(Cl)c([N+](=O)[O-])c1`, the EC50 was 47.1 µM (inactive).

With `COc1ccc(OC)c(NC(=O)C(CC(C)C)NC(=O)C2CCCCC2)c1` (configuration not stated), the EC50 is > 80 µM (inactive).
